The record followed here is patent US6358948B1 (American Home Products Corporation, priority 1999, dated 2002).

“And” between values parts separate entries of the source, which are not always exact repeats. Equal entries are not always repeated.

Usually melting point stands for the temperature, or range, at which the solid turns liquid.

The first data set deals with rat uterine decidualization. In words: Rat decidualization assay. The settings on record: p.o.; half-maximal decrease in EC50 progesterone induced decidual response, rats. The class given is in vivo.
For the compound `CC#C[C@]1(O)CC[C@H]2[C@@H]3CCC4=CC(=O)CCC4=C3[C@@H](c3ccc(N(C)C)cc3)C[C@@]21C` [RU 486], the IC50 is 0.21 mg/kg and 0.14 mg/kg.

The same data set, now with this note: s.c.; half-maximal increase in decidual response (uterine wet weight), ovariectomized rats; individual studies.
For the compound `C#C[C@]1(O)CC[C@H]2[C@@H]3CCC4=CC(=O)CC[C@@H]4[C@H]3C(=C)C[C@@]21CC` [3-Ketodesogestrel], the EC50 is 0.10 mg/kg and 0.06 mg/kg and 0.11 mg/kg.
Same read-out and setting: the figure for `C#C[C@]1(O)CC[C@H]2[C@@H]3CCC4=CC(=O)CC[C@@H]4[C@H]3CC[C@@]21CC` [Levonorgestrel] is 0.08 mg/kg and 0.12 mg/kg and 0.09 mg/kg (2×).

The target of another data set is T1, human PR (Homo sapiens, UniProt P06401).
T1 construct: expressed in transfected cells; host or cells: CV-1 cells (electroporated with pLEM-hPR-B and pGL3-2xPRE-luciferase)
T1 sequence (P06401 1-933): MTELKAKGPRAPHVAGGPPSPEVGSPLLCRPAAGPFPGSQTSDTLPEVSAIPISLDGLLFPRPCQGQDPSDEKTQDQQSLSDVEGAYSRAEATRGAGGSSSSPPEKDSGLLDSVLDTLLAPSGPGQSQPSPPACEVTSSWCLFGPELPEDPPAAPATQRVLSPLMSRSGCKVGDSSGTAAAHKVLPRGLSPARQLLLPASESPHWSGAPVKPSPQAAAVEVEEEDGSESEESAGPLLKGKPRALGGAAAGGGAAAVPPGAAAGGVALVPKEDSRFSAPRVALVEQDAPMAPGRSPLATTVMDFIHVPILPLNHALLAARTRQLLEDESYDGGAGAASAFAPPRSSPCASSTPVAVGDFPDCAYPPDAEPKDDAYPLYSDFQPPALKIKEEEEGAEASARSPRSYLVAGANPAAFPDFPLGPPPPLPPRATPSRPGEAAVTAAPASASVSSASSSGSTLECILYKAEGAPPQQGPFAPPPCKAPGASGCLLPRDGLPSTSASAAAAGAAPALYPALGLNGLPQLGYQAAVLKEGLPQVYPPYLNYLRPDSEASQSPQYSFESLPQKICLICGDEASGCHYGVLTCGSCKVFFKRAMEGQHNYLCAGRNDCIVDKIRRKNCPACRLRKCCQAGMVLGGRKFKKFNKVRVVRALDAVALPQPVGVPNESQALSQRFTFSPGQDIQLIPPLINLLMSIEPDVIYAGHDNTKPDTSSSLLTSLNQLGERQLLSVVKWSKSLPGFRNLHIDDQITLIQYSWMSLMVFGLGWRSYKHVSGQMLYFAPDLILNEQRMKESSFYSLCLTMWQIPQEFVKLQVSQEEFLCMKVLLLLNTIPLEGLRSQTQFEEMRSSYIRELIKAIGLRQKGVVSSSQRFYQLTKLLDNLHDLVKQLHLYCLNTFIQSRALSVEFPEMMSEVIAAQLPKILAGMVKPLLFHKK
In words: PRE-luciferase assay in CV-1 cells. The class given is cell-based. As to conditions: CV-1 cells co-transfected with human PR and PRE-luciferase; decrease in 3 nM progesterone induced PRE-luciferase activity; read-out: hPR CV-1 IC50.
On to `CC1OC(C)(C)Nc2ccc(-c3cccc([N+](=O)[O-])c3)cc21` (stereo not drawn) [Compound 3, 6-(3-Nitro-phenyl)-2,2,4,-trimethyl-1,4-dihydro-2H-benzo[d][1,3]oxazine], for which the IC50 was found to be 1680 nM.

Still in this data set, the particulars now being: read-out: hPR CV-1 IC50.
Regarding `CC1(C)OC(C)(C(F)(F)F)Nc2ccc(-c3cccc(Cl)c3)cc21` (stereo not drawn) [Compound 2, 6-(3-Chloro-phenyl)-2,4,4-trimethyl-2-trifluoromethyl-1,4-dihydro-2H-benzo[d][1,3]oxazine], the IC50 was 50 nM.

System in another data set: not given
Assay: not given
Settings: not given
Turning to `CC1OC(C)(C)c2cc(-c3ccc(C#N)n3C)ccc2N1C(=O)OCC1c2ccccc2-c2ccccc21` (stereo not drawn) [Example 21, 9H-Fluoren-9-ylmethyl 6-(5-cyano-1-methyl-1H-pyrrol-2-yl)-2,4,4-trimethyl-2H-3,1-benzoxazine-1(4H)-carboxylate], the melting point was 63 to 64 °C.
Still for that read-out and setting: then `C[C@@H]1Nc2ccc(-c3cc(F)cc(C#N)c3)cc2[C@](C)(c2ccccc2)O1` [Example 17, 3-[(2R,4S)-2,4-Dimethyl-4-phenyl-1,4-dihydro-2H-3,1-benzoxazin-6yl]-5-fluorobenzonitrile], with 128 to 129 °C; and `CC1Nc2ccc(-c3ccc(C#N)[nH]3)cc2C(C)(C)O1` (stereo not drawn) [Example 20, 5-(2,4,4-Trimethyl-1,4-dihydro-2H-3,1-benzoxazin-6-yl)-1H-pyrrole-2-carbonitrile], with 201 to 202 °C; and `CC1(C)CC(=O)Nc2ccc(-c3cccc(F)c3)cc21` [Example 40, 6-(3-Fluorophenyl)-4,4-dimethyl-3,4-dihydroquinolin-2(1H)one], with 190 to 192 °C.
`CC1Nc2ccc(-c3cc(F)cc(C#N)c3)cc2C(C)(C)O1` (stereo not drawn) [Example 14, 3-Fluoro-5-(2,4,4-trimethyl-1,4-dihydro-2H-3,1-benzoxazin-6-yl)benzonitrile] yielded a melting point of 163 to 164 °C.
`CC1(C)CC(=S)Nc2ccc(-c3cccc(Cl)c3)cc21` [Example 43, 6-(3-Chlorophenyl)-4,4-dimethyl-3,4dihydroquinoline-2(1H)-thione] showed a melting point of 197 to 198 °C.
Same read-out and setting: then `CC1(C)CC(=O)Nc2ccc(-c3cc(F)cc(C#N)c3)cc21` [Example 41, 3-(4,4-Dimethyl-2-oxo-1,2,3,4-tetrahydroquinolin-6-yl)-5-fluorobenzonitrile], with 249 to 250 °C.
As to `CC1(C)OC(C(F)(F)F)Nc2ccc(-c3cc(F)cc(C#N)c3)cc21` (stereo not drawn) [Example 32, 3-[4,4-Dimethyl-2-(trifluoromethyl)-1,4-dihydro-2H-3,1-benzoxazin-6-yl]-5-fluorobenzonitrile], the melting point was 102 to 103 °C.
`CC1Nc2ccc(-c3cccc(Cl)c3)cc2C(C)(C)O1` (stereo not drawn) [Example 28, 6-(3-Chlorophenyl)-2,4,4-trimethyl-1,4-dihydro-2H-3,1-benzoxazine] came in with a melting point of 144 to 146 °C.
`CN1C(=O)Nc2ccc(-c3cccc(Cl)c3)cc2C1(C)C1CC1` (stereo not drawn) [Example 10, 6-(3-Chlorophenyl)-4-cyclopropyl-3,4-dimethyl-3,4-dihydro-1H-quinazolin-2-one] had a melting point of 193 to 194 °C.
`CC1Nc2ccc(-c3csc(C#N)c3)cc2C2(CCCCC2)O1` (stereo not drawn) [Example 26, 4-(2-Methylspiro[2H-3,1-benzoxazine-4,1′-cyclohexane]-6-yl)2-thiophenecarbonitrile] came in with a melting point of 111 to 112 °C.
Same read-out and setting: then `CC1Nc2ccc(-c3ccc(F)c(Cl)c3)cc2C(C)(C)O1` (stereo not drawn) [Example 29, 6-(3-Chloro-4-fluorophenyl)-2,4,4-trimethyl-1,4-dihydro-2H-3,1-benzoxazine], with 173 to 175 °C; and `CC1Nc2ccc(-c3ccc(F)c(C#N)c3)cc2C(C)(C)O1` (stereo not drawn) [Example 30, 2-Fluoro-5-(2,4,4-trimethyl-1,4-dihydro-2H-3,1-benzoxazin-6-yl)benzonitrile], with 184 to 186 °C; and `CC1(C2CC2)NC(=O)Nc2ccc(-c3cccc(Cl)c3)cc21` (stereo not drawn) [Example 9, 6-(3-Chlorophenyl)-4-cyclopropyl-4-methyl-3,4-dihydro-1H-quinazolin-2-one], with 125 to 127 °C.
`CC1Nc2ccc(-c3csc(C#N)c3)cc2C(C)(C)O1` (stereo not drawn) [Example 15, 4-(2,4,4-Trimethyl-1,4-dihydro-2H-3,1-benzoxazin-6-yl)thiophene-2carbonitrile] registered a melting point of 175 to 176 °C.
`CC1(C)CC(=O)Nc2ccc(-c3cccc(Cl)c3)cc21` [Example 11, 6-(3-Chloro-phenyl)-4,4-dimethyl-3,4-dihydro-1H-quinolin-2-one] came in with a melting point of 211 to 215 °C.
Still for that read-out and setting: the figure for `CC1Nc2ccc(-c3coc(C#N)c3)cc2C(C)(C)O1` (stereo not drawn) [Example 31, 4-(2,4,4-Trimethyl-1,4-dihydro-2H-3,1-benzoxazin-6-yl)2-furonitrile] is 116 to 118 °C; for `Cc1cc(C#N)sc1-c1ccc2c(c1)C(C)(C)OC(C(F)(F)F)N2` (stereo not drawn) [Example 38, 5-[4,4-Dimethyl-2-(trifluoromethyl)-1,4-dihydro-2H-3,1-benzoxazin-6-yl]-4-methylthiophene-2-carbonitrile] it is 97 to 98 °C.
On the same count and under the same terms, the figure for `CC1OC(C)(C)c2cc(-c3ccc(C#N)n3C(=O)OC(C)(C)C)ccc2N1C(=O)OCC1c2ccccc2-c2ccccc21` (stereo not drawn) [Example 19, 9H-Fluoren-9-ylmethyl-6-[1-(tert-butoxycarbonyl)-5-cyano-1H-pyrrol-2-yl]-2,4,4-trimethyl-2H-3,1-benzoxazine-1(4H)-carboxylate] is 135 to 136 °C.
`CC1Nc2ccc(-c3cccc(F)c3)cc2C(C)(C)O1` (stereo not drawn) [Example 27, 6-(3-Fluorophenyl)-2,4,4-trimethyl-1,4-dihydro-2H-3,1-benzoxazine] came in with a melting point of 139 to 140 °C.
Still for that read-out and setting: the figure for `CC1(C)OC(C(F)(F)F)Nc2ccc(-c3cccc(Cl)c3)cc21` (stereo not drawn) [Example 39, 6-(3-Chlorophenyl)-4,4-dimethyl-2-(trifluoromethyl)-1,4-dihydro-2H-3,1-benzoxazine] is 108 to 109 °C.
The compound `CC1Nc2ccc(-c3ccc(C#N)n3C)cc2C(C)(C)O1` (stereo not drawn) [Example 22, 1-Methyl-5-(2,4,4-trimethyl-1,4-dihydro-2H-3,1-benzoxazin-6-yl)-1H-pyrrole-2-carbonitrile] displayed a melting point of 195 to 196 °C.
Regarding `CC1(C)CC(=S)Nc2ccc(-c3cc(F)cc(C#N)c3)cc21` [Example 46, 3-(4,4-Dimethyl-2-thioxo-1,2,3,4-tetrahydroquinolin-6-yl)-5-fluorobenzonitrile], the melting point is 240 to 242 °C (dec.).
Same read-out and setting: then `CC1(C)CC(=S)Nc2ccc(-c3cccc(F)c3)cc21` [Example 44, 6-(3-Fluorophenyl)-4,4-dimethyl-3,4-dihydroquinoline-2(1H)-thione], with 209 to 211 °C; and `Cc1cc(C#N)sc1-c1ccc2c(c1)C(C)(C)OC(C)N2` (stereo not drawn) [Example 16, 4Methyl-5-(2,4,4-trimethyl-1,4-dihydro-2H-3,1-benzoxazin-6-yl)thiophene-2-carbonitrile], with 145 to 146 °C.
